The source of these data is ChEMBL document CHEMBL1681646 (Bioorg Med Chem Lett, 2011).

The test concerns the target T1, Pancreatic triacylglycerol lipase (Sus scrofa, UniProt P00591).
T1 sequence (P00591 whole entry): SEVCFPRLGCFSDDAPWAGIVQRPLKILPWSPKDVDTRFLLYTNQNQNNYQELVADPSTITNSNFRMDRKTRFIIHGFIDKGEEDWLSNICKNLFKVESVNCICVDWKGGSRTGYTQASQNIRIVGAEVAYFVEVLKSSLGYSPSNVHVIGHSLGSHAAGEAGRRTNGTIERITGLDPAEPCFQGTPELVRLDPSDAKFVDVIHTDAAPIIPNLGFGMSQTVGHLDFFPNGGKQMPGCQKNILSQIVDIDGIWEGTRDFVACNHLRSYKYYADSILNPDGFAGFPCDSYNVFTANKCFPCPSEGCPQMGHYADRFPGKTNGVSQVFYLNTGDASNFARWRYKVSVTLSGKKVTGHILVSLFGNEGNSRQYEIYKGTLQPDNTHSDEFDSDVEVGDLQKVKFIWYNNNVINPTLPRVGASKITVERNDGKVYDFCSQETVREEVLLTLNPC
Description: Inhibition of pig pancreatic lipase assessed as p-NPB hydrolysis […].
By IC50 is commonly meant the concentration that inhibits the measured activity by half. As to `COc1cc([C@@H](O)[C@H](C)O)ccc1O` (relative stereo), the IC50 turned out to be 12.1 µM.
For the compound `COc1cc([C@H](O)[C@H](C)O)ccc1O` (relative stereo), the IC50 worked out at 9.1 µM.
The same measure for `COc1cc([C@H]2CC(=O)O[C@H]2C)ccc1O` (relative stereo) [CURCULACTONE A]: 232 µM; for `COc1cc(C(=O)O)ccc1O` [VANILLIC ACID]: over 250 µM; for `COc1cc(C=O)ccc1O` [VANILLIN]: 174 µM.
